System: IgE
Assay: IgE content in the serum (ELISA)
Type: in vivo
Details: positive control group, 30 mg/kg
Description: In order to measure IgE content in the serum, enzyme-linked immunosorbent assay (ELISA) (an antigen-antibody amount measurement method) kit was used. 100 μl of each of the standard solution and the serum entered each well, was reacted at 4° C. for 10 hours using a rotary agitator and then washed 4 times with a washing solution.
After completely removing the washing solution, 100 μl of a detection antibody entered each well, followed by rotational-agitation at room temperature for 1 hour and then washing the same 4 times with the washing solution. After washing, 100 μl of HRP-Streptavidin (enzyme activity and adsorption protein) solution entered each well, followed by rotational-agitation at room temperature for 45 minutes and then washing the same with 1× washing solution. Further, 100 μl of TMB One-step detection reagent entered each well, followed by rotational-agitation in a dark room for 30 minutes, and then, treatment with 50 μl of a reaction stopping reagent. Then, the absorbance was measured at […], compared to IgE standard curve to convert a content (pg/ml).

Compound: CC(C)(O)c1ccccc1CC[C@@H](SCC1(CC(=O)O)CC1)c1cccc(/C=C/c2ccc3ccc(Cl)cc3n2)c1 [monteluksat, montelukast]
- IgE content in the serum: 347 pg/mL

Reference: patent publication US12233100B1, “Composition for improving respiratory health of companion animals” (priority 2024, dated 2025)
